# Measurements: PubChem BioAssay (NCI)
#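 Test compounds were applied to cells in 96-well plates for 48 hours at 5 doses. GI50: concentration for 50% inhibition of growth. The concentration for full growth arrest is given as TGI.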
# Assays:
# Experiment in all cases: NCI tumour cell line growth inhibition, 48 h
# [1] = tested on: NCI-H226 lung
# [2] = tested on: MDA-MB-231 breast
# [3] = tested on: SR leukemia
# [4] = tested on: U251 CNS
# [5] = tested on: HS 578T breast
# [6] = tested on: RXF 393 renal
# [7] = tested on: MALME-3M melanoma
# [8] = tested on: NCI/ADR-RES ovarian
# [9] = tested on: SW-620 colon
# [10] = tested on: NCI-H522 lung
# [11] = tested on: HL-60(TB) leukemia
# [12] = tested on: MCF7 breast
# [13] = tested on: ACHN renal
# [14] = tested on: HT29 colon
# [15] = tested on: NCI-H460 lung
# [16] = tested on: K-562 leukemia
# [17] = tested on: SF-295 CNS
# [18] = tested on: HCC-2998 colon
# [19] = tested on: SK-MEL-28 melanoma
# [20] = tested on: DU-145 prostate
# [21] = tested on: SF-268 CNS
# [22] = tested on: OVCAR-8 ovarian
# [23] = tested on: NCI-H23 lung
# [24] = tested on: EKVX NSCLC
# [25] = tested on: SK-MEL-2 melanoma
# [26] = tested on: M14 melanoma
# [27] = tested on: IGROV1 ovarian
# [28] = tested on: HCT-15 colon
# [29] = tested on: LOX IMVI melanoma
# [30] = tested on: UACC-257 melanoma
# [31] = tested on: HCT-116 colon
# [32] = tested on: BT-549 breast
# [33] = tested on: UO-31 renal
# [34] = tested on: OVCAR-4 ovarian
# [35] = tested on: T-47D breast
# [36] = tested on: SNB-19 CNS
# [37] = tested on: MOLT-4 leukemia
# [38] = tested on: COLO 205 colon
# [39] = tested on: HOP-62 NSCLC
# [40] = tested on: A549 NSCLC
# [41] = tested on: SF-539 CNS
# [42] = tested on: SK-OV-3 ovarian
# [43] = tested on: TK-10 renal
# [44] = tested on: HOP-92 NSCLC
# [45] = tested on: MDA-MB-435
# [46] = tested on: A498 renal
# [47] = tested on: SNB-75 CNS
# [48] = tested on: CAKI-1 renal
# [49] = tested on: CCRF-CEM leukemia
# [50] = tested on: OVCAR-3 ovarian
# [51] = tested on: OVCAR-5 ovarian
# [52] = tested on: KM12 colon
# [53] = tested on: RPMI-8226 leukemia
# [54] = tested on: SK-MEL-5 melanoma
smiles,measurement,setting,value
COc1ccccc1C1C(C#N)=C(N)OC2=C1C(=O)CCC2 (stereo not drawn),GI50,[1],74.2 µM
same,TGI,[1],> 100 µM
same,GI50,[2],16.2 µM
same,TGI,[2],> 100 µM
same,GI50,[3],14.2 µM
same,TGI,[3],> 100 µM
same,GI50,[4],> 100 µM
same,TGI,[4],> 100 µM
same,GI50,[5],> 100 µM
same,TGI,[5],> 100 µM
same,GI50,[6],> 100 µM
same,TGI,[6],> 100 µM
same,GI50,[7],> 100 µM
same,TGI,[7],> 100 µM
same,GI50,[8],> 100 µM
same,TGI,[8],> 100 µM
same,GI50,[9],> 100 µM
same,TGI,[9],> 100 µM
same,GI50,[10],> 100 µM
same,TGI,[10],> 100 µM
same,GI50,[11],> 100 µM
same,TGI,[11],> 100 µM
same,GI50,[12],> 100 µM
same,TGI,[12],> 100 µM
same,GI50,[13],> 100 µM
same,TGI,[13],> 100 µM
same,GI50,[14],> 100 µM
same,TGI,[14],> 100 µM
same,GI50,[15],> 100 µM
same,TGI,[15],> 100 µM
same,GI50,[16],> 100 µM
same,TGI,[16],> 100 µM
same,GI50,[17],> 100 µM
same,TGI,[17],> 100 µM
same,GI50,[18],> 100 µM
same,TGI,[18],> 100 µM
same,GI50,[19],> 100 µM
same,TGI,[19],> 100 µM
same,GI50,[20],> 100 µM
same,TGI,[20],> 100 µM
same,GI50,[21],> 100 µM
same,TGI,[21],> 100 µM
same,GI50,[22],> 100 µM
same,TGI,[22],> 100 µM
same,GI50,[23],> 100 µM
same,TGI,[23],> 100 µM
same,GI50,[24],> 100 µM
same,TGI,[24],> 100 µM
same,GI50,[25],> 100 µM
same,TGI,[25],> 100 µM
same,GI50,[26],> 100 µM
same,TGI,[26],> 100 µM
same,GI50,[27],> 100 µM
same,TGI,[27],> 100 µM
same,GI50,[28],> 100 µM
same,TGI,[28],> 100 µM
same,GI50,[29],> 100 µM
same,TGI,[29],> 100 µM
same,GI50,[30],> 100 µM
same,TGI,[30],> 100 µM
same,GI50,[31],> 100 µM
same,TGI,[31],> 100 µM
same,GI50,[32],> 100 µM
same,TGI,[32],> 100 µM
same,GI50,[33],> 100 µM
same,TGI,[33],> 100 µM
same,GI50,[34],> 100 µM
same,TGI,[34],> 100 µM
same,GI50,[35],> 100 µM
same,TGI,[35],> 100 µM
same,GI50,[36],> 100 µM
same,TGI,[36],> 100 µM
same,GI50,[37],> 100 µM
same,TGI,[37],> 100 µM
same,GI50,[38],> 100 µM
same,TGI,[38],> 100 µM
same,GI50,[39],> 100 µM
same,TGI,[39],> 100 µM
same,GI50,[40],> 100 µM
same,TGI,[40],> 100 µM
same,GI50,[41],> 100 µM
same,TGI,[41],> 100 µM
same,GI50,[42],> 100 µM
same,TGI,[42],> 100 µM
same,GI50,[43],> 100 µM
same,TGI,[43],> 100 µM
same,GI50,[44],15.8 µM
same,TGI,[44],> 100 µM
same,GI50,[45],> 100 µM
same,TGI,[45],> 100 µM
same,GI50,[46],> 100 µM
same,TGI,[46],> 100 µM
same,GI50,[47],> 100 µM
same,TGI,[47],> 100 µM
same,GI50,[48],> 100 µM
same,TGI,[48],> 100 µM
same,GI50,[49],59.2 µM
same,TGI,[49],> 100 µM
same,GI50,[50],> 100 µM
same,TGI,[50],> 100 µM
same,GI50,[51],> 100 µM
same,TGI,[51],> 100 µM
same,GI50,[52],> 100 µM
same,TGI,[52],> 100 µM
same,GI50,[53],5.77 µM
same,TGI,[53],44.2 µM
same,GI50,[54],> 100 µM
same,TGI,[54],> 100 µM
